Source: patent US20190055256A1, “ANTI-VIRAL DRUG” (DORING INTERNATIONAL GMBH, priority 2016, published 2019)

Experiment: Physical and chemical characteristics: solubility in solvents
Type: physicochemical

In the case of “sodium salt of 7-methylthio-3-nitro [1, 2, 4] triazolo [5,1-c] [1, 2, 4] triazin-4 (1H)-one”, the solubility in acetone (solvent: acetone) was “soluble”, the solubility in chloroform (solvent: chloroform) was “insoluble” and the solubility in dimethylformamide (solvent: dimethylformamide) was “soluble”. For the same substance, the solubility in dimethylsulfoxide (solvent: dimethylsulfoxide) was “soluble” and the solubility in water (solvent: water) was “soluble”.
